In paper PMC10041525, “New Dual Inhibitors of Bacterial Topoisomerases with Broad-Spectrum Antibacterial Activity and In Vivo Efficacy against Vancomycin-Intermediate Staphylococcus aureus” (Journal of Medicinal Chemistry, 2023):
≈ marks a conversion by molar mass, not a printed value. Like-named read-outs stand apart in the source and are kept apart here.

Tested on: 100 A. baumannii strains (50 MDR, 50 non-MDR)
Test: MIC broth microdilution at IHMA Europe, panel of 100 strains
Format: cell-based
Settings: Acinetobacter baumannii, read-out: MIC

MIC (A. baumannii IHMA 1769393, Lithuania 2018, Non-MDR): 0.25 µg/mL (≈ 0.427 µM)
MIC (A. baumannii IHMA 1769782, Israel 2018, MDR): 4 µg/mL (≈ 6.83 µM)
MIC (A. baumannii IHMA 1769910, Israel 2018, Non-MDR): 2 µg/mL (≈ 3.41 µM)
MIC (A. baumannii IHMA 1790317, Czech Republic 2018, Non-MDR): 0.06 µg/mL (≈ 0.102 µM)
MIC (A. baumannii IHMA 1790916, Romania 2018, Non-MDR): 0.12 µg/mL (≈ 0.205 µM)
MIC (A. baumannii IHMA 1791877, Israel 2018, MDR): 2 µg/mL (≈ 3.41 µM)
MIC (A. baumannii IHMA 1792961, Jordan 2018, MDR): 2 µg/mL (≈ 3.41 µM)
MIC (A. baumannii IHMA 1795669, Tunisia 2018, Non-MDR): 0.06 µg/mL (≈ 0.102 µM)
MIC (A. baumannii IHMA 1814276, Lebanon 2018, MDR): 4 µg/mL (≈ 6.83 µM)
MIC (A. baumannii IHMA 1815198, Kuwait 2018, MDR): 4 µg/mL (≈ 6.83 µM)
MIC (A. baumannii IHMA 1815856, Israel 2018, MDR): 2 µg/mL (≈ 3.41 µM)
MIC (A. baumannii IHMA 1821468, South Africa 2018, Non-MDR): 0.25 µg/mL (≈ 0.427 µM)
MIC (A. baumannii IHMA 1829500, Georgia 2018, Non-MDR): 0.5 µg/mL (≈ 0.854 µM)
MIC (A. baumannii IHMA 1830924, United Kingdom 2018, Non-MDR): 0.5 µg/mL (≈ 0.854 µM)
MIC (A. baumannii IHMA 1849819, Kuwait 2018, MDR): 4 µg/mL (≈ 6.83 µM)
MIC (A. baumannii IHMA 1849829, Kuwait 2018, Non-MDR): 0.25 µg/mL (≈ 0.427 µM)
MIC (A. baumannii IHMA 1857118, Slovenia 2018, Non-MDR): 0.25 µg/mL (≈ 0.427 µM)
MIC (A. baumannii IHMA 1863631, France 2018, Non-MDR): 0.25 µg/mL (≈ 0.427 µM)
MIC (A. baumannii IHMA 1870054, United States 2018, Non-MDR): 0.12 µg/mL (≈ 0.205 µM)
MIC (A. baumannii IHMA 1884428, Italy 2018, Non-MDR): 0.25 µg/mL (≈ 0.427 µM)
MIC (A. baumannii IHMA 1884990, Germany 2018, Non-MDR): 0.12 µg/mL (≈ 0.205 µM)
MIC (A. baumannii IHMA 1900538, Turkey 2018, Non-MDR): 0.25 µg/mL (≈ 0.427 µM)
MIC (A. baumannii IHMA 1913773, Kenya 2018, Non-MDR): 0.25 µg/mL (≈ 0.427 µM)
MIC (A. baumannii IHMA 1926285, Qatar 2018, Non-MDR): 0.12 µg/mL (≈ 0.205 µM)
MIC (A. baumannii IHMA 1926288, Qatar 2018, MDR): 4 µg/mL (≈ 6.83 µM)
MIC (A. baumannii IHMA 1957343, Portugal 2019, Non-MDR): 0.12 µg/mL (≈ 0.205 µM)
MIC (A. baumannii IHMA 1963732, Turkey 2019, MDR): 4 µg/mL (≈ 6.83 µM)
MIC (A. baumannii IHMA 1967860, Spain 2019, Non-MDR): 4 µg/mL (≈ 6.83 µM)
MIC (A. baumannii IHMA 1971673, Latvia 2019, MDR): 2 µg/mL (≈ 3.41 µM)
MIC (A. baumannii IHMA 1975075, Israel 2019, Non-MDR): 0.5 µg/mL (≈ 0.854 µM)
MIC (A. baumannii IHMA 1977077, Kuwait 2019, Non-MDR): 0.5 µg/mL (≈ 0.854 µM)
MIC (A. baumannii IHMA 1983151, Greece 2019, MDR): 2 µg/mL (≈ 3.41 µM)
MIC (A. baumannii IHMA 1984665, Lithuania 2019, MDR): 4 µg/mL (≈ 6.83 µM)
MIC (A. baumannii IHMA 1986678, Turkey 2019, Non-MDR): 0.5 µg/mL (≈ 0.854 µM)
MIC (A. baumannii IHMA 1986738, Turkey 2019, MDR): 4 µg/mL (≈ 6.83 µM)
MIC (A. baumannii IHMA 1987162, Croatia 2019, MDR): 2 µg/mL (≈ 3.41 µM)
MIC (A. baumannii IHMA 1993615, Turkey 2019, MDR): 0.5 µg/mL (≈ 0.854 µM)
MIC (A. baumannii IHMA 1994284, Italy 2019, MDR): 1 µg/mL (≈ 1.71 µM)
MIC (A. baumannii IHMA 1995161, Czech Republic 2019, Non-MDR): 0.12 µg/mL (≈ 0.205 µM)
MIC (A. baumannii IHMA 1997936, Morocco 2019, Non-MDR): 0.25 µg/mL (≈ 0.427 µM)
MIC (A. baumannii IHMA 1999178, Belgium 2019, Non-MDR): 0.25 µg/mL (≈ 0.427 µM)
MIC (A. baumannii IHMA 2003279, Turkey 2019, MDR): 2 µg/mL (≈ 3.41 µM)
MIC (A. baumannii IHMA 2014367, Jordan 2019, Non-MDR): 0.12 µg/mL (≈ 0.205 µM)
MIC (A. baumannii IHMA 2014931, South Africa 2019, Non-MDR): 0.25 µg/mL (≈ 0.427 µM)
MIC (A. baumannii IHMA 2019315, Romania 2019, Non-MDR): 0.12 µg/mL (≈ 0.205 µM)
MIC (A. baumannii IHMA 2020360, Croatia 2019, MDR): 4 µg/mL (≈ 6.83 µM)
MIC (A. baumannii IHMA 2031511, Greece 2019, Non-MDR): 0.12 µg/mL (≈ 0.205 µM)
MIC (A. baumannii IHMA 2031524, Greece 2019, MDR): 1 µg/mL (≈ 1.71 µM)
MIC (A. baumannii IHMA 2034657, Tunisia 2019, Non-MDR): 0.25 µg/mL (≈ 0.427 µM)
MIC (A. baumannii IHMA 2035089, Serbia 2019, MDR): 4 µg/mL (≈ 6.83 µM)
MIC (A. baumannii IHMA 2035134, Serbia 2019, Non-MDR): 0.12 µg/mL (≈ 0.205 µM)
MIC (A. baumannii IHMA 2038976, Hungary 2019, MDR): 2 µg/mL (≈ 3.41 µM)
MIC (A. baumannii IHMA 2051503, Serbia 2019, MDR): 2 µg/mL (≈ 3.41 µM)
MIC (A. baumannii IHMA 2058329, Slovenia 2019, Non-MDR): 0.25 µg/mL (≈ 0.427 µM)
MIC (A. baumannii IHMA 2065587, France 2019, Non-MDR): 0.25 µg/mL (≈ 0.427 µM)
MIC (A. baumannii IHMA 2099294, United Kingdom 2019, Non-MDR): 0.5 µg/mL (≈ 0.854 µM)
MIC (A. baumannii IHMA 2129256, Qatar 2019, Non-MDR): 0.12 µg/mL (≈ 0.205 µM)
MIC (A. baumannii IHMA 2154584, Israel 2020, MDR): 2 µg/mL (≈ 3.41 µM)
SMILES: CN(C)c1cc(NC(=O)CNC(C)(C)C)c(O)c2c1C[C@H]1C[C@H]3[C@H](N(C)C)C(O)=C(C(N)=O)C(=O)[C@@]3(O)C(O)=C1C2=O [Tigecycline, tigecycline]
